Experimental findings from article PMC12004523, “Integrated Virtual Screening Approach Identifies New CYP19A1 Inhibitors” (Journal of Chemical Information and Modeling, 2025) are described below.

The term IC50 denotes the concentration that gives 50% inhibition. Higher therefore signals lower potency. Usually inhibition stands for the change of the read-out against control, counted positive when it falls.

The target in assay [1] is T1, human CYP19A1 (aromatase) (Homo sapiens, UniProt P11511).
T1 sequence (P11511 1-503): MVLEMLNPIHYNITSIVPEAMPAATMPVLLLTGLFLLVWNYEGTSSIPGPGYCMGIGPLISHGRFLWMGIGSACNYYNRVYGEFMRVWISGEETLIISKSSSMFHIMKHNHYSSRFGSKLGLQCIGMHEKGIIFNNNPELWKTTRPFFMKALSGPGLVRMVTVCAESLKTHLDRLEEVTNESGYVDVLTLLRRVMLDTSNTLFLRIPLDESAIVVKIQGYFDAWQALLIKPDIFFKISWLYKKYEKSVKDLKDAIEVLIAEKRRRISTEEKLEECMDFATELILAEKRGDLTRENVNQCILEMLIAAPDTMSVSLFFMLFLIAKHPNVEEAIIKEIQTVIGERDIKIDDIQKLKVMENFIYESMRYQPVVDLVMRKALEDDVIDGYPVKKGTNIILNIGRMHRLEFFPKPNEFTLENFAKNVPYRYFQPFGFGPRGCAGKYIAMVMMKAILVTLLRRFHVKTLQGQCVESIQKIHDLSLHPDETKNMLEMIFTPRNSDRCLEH
T1 sequence (P16435 2-677 partner): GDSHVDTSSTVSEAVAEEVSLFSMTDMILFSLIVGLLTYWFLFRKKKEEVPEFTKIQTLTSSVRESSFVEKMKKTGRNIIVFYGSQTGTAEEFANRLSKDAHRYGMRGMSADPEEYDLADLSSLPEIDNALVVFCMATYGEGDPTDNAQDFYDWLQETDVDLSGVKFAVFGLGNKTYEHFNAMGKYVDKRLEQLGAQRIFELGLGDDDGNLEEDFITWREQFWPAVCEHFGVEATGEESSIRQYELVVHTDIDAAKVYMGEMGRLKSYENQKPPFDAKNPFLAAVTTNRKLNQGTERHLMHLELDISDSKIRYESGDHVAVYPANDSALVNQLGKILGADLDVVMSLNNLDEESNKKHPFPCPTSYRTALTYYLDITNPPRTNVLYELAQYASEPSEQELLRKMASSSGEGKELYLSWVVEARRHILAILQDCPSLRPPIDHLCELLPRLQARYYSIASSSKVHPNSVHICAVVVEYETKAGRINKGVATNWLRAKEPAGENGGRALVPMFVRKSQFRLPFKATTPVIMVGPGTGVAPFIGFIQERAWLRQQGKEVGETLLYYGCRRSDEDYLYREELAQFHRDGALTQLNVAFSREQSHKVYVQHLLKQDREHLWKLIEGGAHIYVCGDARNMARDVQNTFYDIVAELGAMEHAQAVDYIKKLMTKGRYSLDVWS
Description: aromatase inhibition in yeast expressing human CYP19A1 and CPR, estradiol biosensor (yEGFP, flow cytometry). In kind it is cell-based. On the technique in general: In flow cytometry, cells or beads pass a laser one at a time.

In assay [2] the target is T1, human CYP19A1 (aromatase). Description: cell-based. Also noted: Whole-yeast human CYP19A1/CPR testosterone aromatization; estradiol quantified by yeast biosensor fluorescence, flow cytometry, per cent of control. The conditions noted are these: Saccharomyces cerevisiae byMM1712; 1 uM inhibitor, testosterone substrate; read-out: % of control remaining. As for the experimental part: Initially, these inhibitors were applied at a final concentration of 10 μM. […] In addition, 9a lacks a Cl atom and 9b lacks a keto group in comparison to 9. […] (a) Illustration of the enzymatic assay based on heterologous expression of human CYP19A1 used for testing candidate CYP19A1 inhibitors. […] Data are presented as mean ± SEM (n = 3).

In assay [3] the target is T1, human CYP19A1 (aromatase). Description: cell-based. The conditions noted are these: for inhibition at 1 µM: read-out: % inhibition (1 μM); for inhibition at 10 µM: read-out: % inhibition (10 μM). Also noted: Yeast expressing human CYP19A1/CPR converts testosterone; estradiol in supernatant read by yeast biosensor, flow cytometry. The procedure: A 14-h precultivation period ensured that the aromatase catalytic capacity remained consistent across all independent experiments and the inhibitor cannot act on P450 expression levels. The initial OD600 was diluted to 0.04, and then the yeast culture’s OD600 was measured and adjusted to 2.00 with fresh SDC medium. One mL of yeast solution (OD600 = 2.00) was poured into the wells of a 48-well deep-well cell culture plate (Axygen P-5 ML-48-C). Subsequently, 1 mL of SDC medium containing 120 nM testosterone and either 10 μM or 1 μM of the inhibitor was added to each well containing the yeast solution. The mixture was incubated at 30 °C and 240 rpm for 2 h. After incubation, 1.5 mL of the mixture from each well was transferred to 2 mL tubes and centrifuged at 16,000 rpm to pellet the yeast cells. Then, 1.2 mL of the supernatant was moved to 1.5 mL tubes and labeled according to the inhibitor concentration. For each sample, 1 mL of the supernatant was transferred to a different well of a 48-well deep-well plate. Next, 980 μL of SDC medium and 20 μL of the precultured byMM1984 biosensor cell solution (OD600 adjusted to 5.00 after 14 h of preculture) were added to each well. Finally, flow cytometry was performed as previously described. The entire assay was repeated in three independent experiments to calculate the mean values. […] Initially, these inhibitors were applied at a final concentration of 10 μM. […] In addition, 9a lacks a Cl atom and 9b lacks a keto group in comparison to 9. […] Several factors were considered to avoid assay artifacts.[46] The biosensor gene circuit used in this study is orthogonal to the yeast chassis,[47] ensuring no interference between the biosensor and the yeast host, thus preventing false positives.

`CC(NC(=O)c1cc2cc(Cl)ccc2oc1=O)c1ccc(-n2ccnc2)cc1` (racemic) [compound 9, N-(1-(4-(1H-imidazol-1-yl)phenyl)ethyl)-6-chloro-2-oxo-2H-chromene-3-carboxamide] returned a concentration for half-maximal inhibition (IC50) in assay [1] of 271 ± 51 nM. Besides, in assay [2], the remaining activity at 1 µM came to 13 ± 2%.

For `O=C(NCc1ccc(-n2ccnc2)cc1)c1cc2ccccc2oc1=O` [9a], in assay [1], the half-inhibitory concentration (IC50) amounted to 1040 ± 63 nM. For the same compound, the remaining activity at 1 µM in assay [2] worked out at 50 ± 1%. Moreover, in assay [3], the inhibition at 1 µM is 51.9% and the inhibition at 10 µM came to 87.4%.

Turning to `O=C(NCc1ccc(-n2ccnc2)cc1)C1=Cc2cc(Cl)ccc2OC1` [9b], in assay [1], the IC50 worked out at 1250 ± 190 nM. In addition, in assay [2], the remaining activity at 1 µM stood at 58 ± 1%. Besides, in assay [3], the inhibition at 1 µM is 43.8% and the inhibition at 10 µM came out at 85%.

Take `O=C(Nc1cccc(-c2cn3cccnc3n2)c1)c1ccc(Cl)cc1Cl` [compound 1]: in assay [3], the inhibition at 10 µM came to 25.9%.

As to `CSc1ccc2nc(N3CC(Cn4ccnc4)C3)sc2c1` [compound 2], the inhibition at 10 µM in assay [3] was 30.9%.

Consider `O=C(Cc1c(F)cccc1Cl)N1CCC(Cn2ccnc2)CC1` [compound 4], for which the inhibition at 10 µM in assay [3] is 22.8%.

As to `COc1ccc(-c2cn3cccnc3n2)cc1NC(=O)Nc1ccc(F)cc1` [compound 7], the inhibition at 10 µM in assay [3] stood at 25.6%.

For the compound `CC1(c2ccc(Cl)cc2Cl)OCC(Cn2cncn2)O1` (stereo not shown) [compound 8, 8], the IC50 in assay [1] was determined as 1130 ± 158 nM.

Regarding `CC1(c2ccc(Cl)cc2Cl)OCC(Cn2cncn2)O1` (stereo not shown) [compound 8], the remaining activity at 1 µM in assay [2] was found to be 57 ± 7%. In addition, in assay [3], the inhibition at 1 µM amounted to 44.3% and the inhibition at 10 µM was 81.7%.

With `CC(NC(=O)c1cc2cc(Cl)ccc2oc1=O)c1ccc(-n2ccnc2)cc1` (stereo not shown) [compound 9], in assay [3], the inhibition at 1 µM is 89.7% and the inhibition at 10 µM was found to be 96.7%.

`O=c1cc(Cn2ccnc2)c2cc(O)c(-c3ccccc3)cc2o1` [compound 10]: in assay [3], the inhibition at 10 µM amounted to 38.1%.

`N#Cc1ccc(C(c2ccc(C#N)cc2)n2cncn2)cc1` [letrozole]: the inhibition at 10 µM in assay [3] was 80.4%.
